Reference: the supplement of paper PMC10307832

What follows are cell lines tested with C1CC(C2=C(C1)C3=C(N2)C=CC(=C3)Cl)C(=O)N [Selisistat] + N=C(N)NC(=N)NCCc1ccccc1 [Phenformin] (partner 250 µM) (assay: relative viability (nuclei count vs DMSO), 5 days (fraction); higher = more cells survive). Conditions: first compound 0.4 µM.
Summary of the method: (§1)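 For relative viability, nuclei counts in treated wells were divided by those in vehicle wells. Lung cancer cell lines had been pin-tool dosed in 1536-well plates the day after seeding and cultured for 5 days, then fixed and stained in one step (final 0.05% Triton X-100, 1% formaldehyde, 1 ug/ml Hoechst) and imaged at 4×. Doses were one drug alone or a fixed anchor-drug dose plus five library-drug doses (not always all listed) in √10 steps, and values are duplicate-plate medians.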

Cell Line | relative viability
NCI-H838 | 0.62
LCLC-103H | 0.339
NCI-H520 | 0.598
NCI-H2126 | 0.516
EMC-BAC-2 | 0.514
NCI-H2085 | 0.824
HCC-366 | 0.662
NCI-H1666 | 0.514
NCI-H596 | 0.742
LK-2 | 0.577
NCI-H2087 | 0.54
NCI-H2342 | 0.562
SK-MES-1 | 0.683
H3255 | 0.375
COR-L23 | 0.443
COR-L 105 | 0.479
LOU-NH91 | 0.822
ChaGo-K-1 | 0.488
NCI-H2170 | 0.413
NCI-H2405 | 0.401
HOP-62 | 0.663
HCC-44 | 0.159
A549 | 0.192
SW 900 | 0.632
LU99A | 0.897
BEN | 0.246
HARA | 0.412
NCI-H1563 | 0.662

Same assay, conditions: first compound 1.265 µM

Cell Line | relative viability
NCI-H522 | 0.61
NCI-H1623 | 0.556
NCI-H727 | 0.534
NCI-H1650 | 0.448
NCI-H1993 | 0.545
SW 1573 | 0.314
NCI-H838 | 0.478
LCLC-103H | 0.338
NCI-H520 | 0.485
NCI-H2126 | 0.489
EMC-BAC-2 | 0.502
NCI-H2085 | 0.717
HCC-366 | 0.679
NCI-H1666 | 0.606
NCI-H596 | 0.816
LK-2 | 0.373
NCI-H2087 | 0.455

Cell Line | relative viability
NCI-H2342 | 0.54
SK-MES-1 | 0.718
H3255 | 0.363
COR-L23 | 0.43
COR-L 105 | 0.439
LOU-NH91 | 0.691
ChaGo-K-1 | 0.458
NCI-H2170 | 0.417
NCI-H2405 | 0.333
HOP-62 | 0.619
A549 | 0.17
SW 900 | 0.621
LU99A | 0.956
BEN | 0.286
HARA | 0.476
NCI-H1563 | 0.658

Same assay, conditions: first compound 4 µM

Cell Line | relative viability
NCI-H522 | 0.469
NCI-H1623 | 0.413
NCI-H1650 | 0.336
NCI-H1993 | 0.528
SW 1573 | 0.362
NCI-H838 | 0.346
LCLC-103H | 0.334
NCI-H520 | 0.577
NCI-H2126 | 0.499
EMC-BAC-2 | 0.567
NCI-H2085 | 0.472
HCC-366 | 0.557
NCI-H1666 | 0.582
NCI-H596 | 0.584
LK-2 | 0.385
NCI-H2342 | 0.504
SK-MES-1 | 0.681
H3255 | 0.327
COR-L23 | 0.458
LOU-NH91 | 0.627
ChaGo-K-1 | 0.439
NCI-H2170 | 0.4
NCI-H2405 | 0.222
HOP-62 | 0.777
HCC-44 | 0.168
SW 900 | 0.468
LU99A | 0.956
BEN | 0.256
HARA | 0.412
NCI-H1563 | 0.63

Same assay, conditions: first compound 12.65 µM

Cell Line | relative viability
NCI-H522 | 0.61
NCI-H1623 | 0.579
NCI-H727 | 0.398
NCI-H1650 | 0.361
NCI-H1993 | 0.556
SW 1573 | 0.445
NCI-H838 | 0.547
LCLC-103H | 0.351
NCI-H520 | 0.533
NCI-H2126 | 0.537
EMC-BAC-2 | 0.517
NCI-H2085 | 0.735
HCC-366 | 0.575
NCI-H1666 | 0.538
NCI-H596 | 0.593
LK-2 | 0.382
NCI-H2087 | 0.44

Cell Line | relative viability
NCI-H2342 | 0.601
SK-MES-1 | 0.695
H3255 | 0.405
COR-L23 | 0.424
COR-L 105 | 0.371
LOU-NH91 | 0.71
ChaGo-K-1 | 0.422
NCI-H2170 | 0.432
NCI-H2405 | 0.393
HOP-62 | 0.64
HCC-44 | 0.226
A549 | 0.123
SW 900 | 0.484
LU99A | 0.806
BEN | 0.239
HARA | 0.396
NCI-H1563 | 0.638

Same assay, conditions: first compound 40 µM

Cell Line | relative viability
NCI-H522 | 0.687
NCI-H1623 | 0.533
NCI-H727 | 0.478
NCI-H1650 | 0.465
NCI-H1993 | 0.537
SW 1573 | 0.399
NCI-H838 | 0.57
LCLC-103H | 0.355
NCI-H520 | 0.528
NCI-H2126 | 0.551
EMC-BAC-2 | 0.493
NCI-H2085 | 0.728
HCC-366 | 0.609
NCI-H1666 | 0.529
NCI-H596 | 0.716
LK-2 | 0.387
NCI-H2087 | 0.472

Cell Line | relative viability
NCI-H2342 | 0.61
SK-MES-1 | 0.681
H3255 | 0.374
COR-L23 | 0.441
COR-L 105 | 0.421
LOU-NH91 | 0.728
ChaGo-K-1 | 0.485
NCI-H2170 | 0.458
NCI-H2405 | 0.397
HOP-62 | 0.676
HCC-44 | 0.353
A549 | 0.145
SW 900 | 0.641
LU99A | 0.832
BEN | 0.275
HARA | 0.379
NCI-H1563 | 0.585

These cell lines were tested with C1CC(C2=C(C1)C3=C(N2)C=CC(=C3)Cl)C(=O)N [Selisistat] + COc1cccc2cc(-c3nc([C@H]4CC[C@H](C(=O)O)CC4)n4ncnc(N)c34)[nH]c12 [OSI-027] (partner 0.5 µM) in the same assay as above. Conditions: first compound 0.4 µM.
Summary of the method: as §1

Cell Line | relative viability
NCI-H522 | 0.744
NCI-H1623 | 0.421
NCI-H727 | 0.587
